The target of test [1] is T1, Bifunctional dihydrofolate reductase-thymidylate synthase (Toxoplasma gondii, UniProt Q07422).
T1 sequence (Q07422 whole entry): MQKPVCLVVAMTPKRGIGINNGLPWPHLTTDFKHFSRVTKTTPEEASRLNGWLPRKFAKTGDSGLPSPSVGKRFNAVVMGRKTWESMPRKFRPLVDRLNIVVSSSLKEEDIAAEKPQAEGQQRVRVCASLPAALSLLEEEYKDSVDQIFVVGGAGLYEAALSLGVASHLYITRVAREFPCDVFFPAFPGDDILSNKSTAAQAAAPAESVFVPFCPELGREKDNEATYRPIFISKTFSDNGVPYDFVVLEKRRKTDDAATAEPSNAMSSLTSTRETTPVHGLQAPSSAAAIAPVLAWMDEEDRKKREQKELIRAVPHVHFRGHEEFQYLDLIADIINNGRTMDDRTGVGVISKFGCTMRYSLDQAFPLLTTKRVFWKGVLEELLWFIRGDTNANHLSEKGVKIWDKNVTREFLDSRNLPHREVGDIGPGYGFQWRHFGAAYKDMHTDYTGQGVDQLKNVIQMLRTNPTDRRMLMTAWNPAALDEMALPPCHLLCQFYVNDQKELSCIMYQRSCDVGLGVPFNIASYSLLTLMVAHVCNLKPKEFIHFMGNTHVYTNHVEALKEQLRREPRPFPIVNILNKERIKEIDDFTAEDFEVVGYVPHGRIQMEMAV
Description: Inhibitory activity against Dihydrohydrofolate reductase(DHFR) of Toxoplasma gondii

Test [2] addresses T2, Dihydrofolate reductase (Rattus norvegicus, UniProt Q920D2).
T2 sequence (Q920D2 whole entry): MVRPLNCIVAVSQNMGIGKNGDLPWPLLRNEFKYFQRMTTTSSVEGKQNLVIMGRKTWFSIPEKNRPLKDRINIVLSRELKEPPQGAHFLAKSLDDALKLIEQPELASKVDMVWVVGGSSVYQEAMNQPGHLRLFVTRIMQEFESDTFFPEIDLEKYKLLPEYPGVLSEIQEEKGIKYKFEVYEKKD
Description: Inhibitory activity against Dihydrohydrofolate reductase (DHFR) of rat

Test [3] can be described thus: Relative affinity for Dihydrofolate reductase of rat liver and Mycobacterium avium.
Test [4] has as its target T3, Dihydrofolate reductase (Mycobacterium avium, UniProt O30463).
T3 sequence (O30463 whole entry): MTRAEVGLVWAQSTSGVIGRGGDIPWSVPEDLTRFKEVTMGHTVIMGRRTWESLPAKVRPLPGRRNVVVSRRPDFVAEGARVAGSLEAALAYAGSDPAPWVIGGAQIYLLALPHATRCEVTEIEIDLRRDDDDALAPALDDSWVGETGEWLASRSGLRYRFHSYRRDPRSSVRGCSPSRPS
Description: Inhibition of Dihydrohydrofolate reductase(DHFR) of Mycobacterium avium

The IC50 is the concentration needed to halve the response being measured. Lower therefore signals higher potency. Take `Nc1nc(N)c2nc(-c3ccccc3)c(-c3ccccc3)nc2n1`: half-maximal inhibition in test [1] (IC50) required 240 nM.

The molecule `Nc1nc(N)c2c(CNc3cccc4c3CCCC4)c[nH]c2n1` yielded an IC50 in test [1] of 1100 nM.

Consider `COc1cc(Cc2cnc(N)nc2N)cc(OC)c1-n1cccc1`, for which the IC50 in test [1] was found to be 470 nM. Compared with the last molecule, the IC50 is about 2.3-fold lower.

Take `COc1ccc(OCCCC(=O)O)cc1Cc1cnc(N)nc1N`: in test [2], the IC50 was 2700 nM.

`Cc1cccc(-c2nc3c(N)nc(N)nc3nc2N)c1`: it took 18 nM to reach half-maximal inhibition in test [1] (IC50).

Molecule `Nc1nc(N)c2nc(C(=O)c3ccccc3)c(-c3ccccc3)nc2n1` showed an IC50 in test [1] of 860 nM.

`Nc1nc(N)c2nc(CCSc3ccccc3)cnc2n1` gave an IC50 in test [1] of 770 nM.

The molecule `COc1ccc(C#CCOc2ccccc2C(=O)O)cc1Cc1cnc(N)nc1N` returned a Selectivity index in test [3] of 170.

In test [4], `COc1ccc(C#CCCCC(=O)O)cc1Cc1cnc(N)nc1N` gave a half-maximal inhibitory concentration (IC50) of 7.8 nM. This counts as single-digit nanomolar.
